Results as given in patent US20260125400A1, “TYK2 DEGRADERS AND USES THEREOF” (Kymera Therapeutics, Inc., priority 2023, published 2026).
Where two headings read alike, the source gives them in different places.

Biological target: T1, TYK2 (Homo sapiens, UniProt P29597)
T1 construct: Degradation of TYK2 in cells was quantitatively measured using Meso Scale Discovery (MSD) technology; endogenous in cells; host or cells: OCI-LY10
Assay: TYK2 MSD degradation in OCI-LY10 cells
Type: cell-based
Settings: 4 to 24 hours incubation; for DC50: read-out: TYK2 MSD OCI-LY10 Rel-DC50
In short: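 Cellular TYK2 levels were measured by Meso Scale Discovery sandwich detection in RIPA lysates of OCI-LY10 cells exposed 4 to 24 hours at 37° C to nine 1:3 compound doses starting at 1 to 10 μM final; dose-response fitted by four-parameter regression.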

[1] = TYK2 degradation in OCI-LY10 cells

T1 sequence (P29597 whole entry): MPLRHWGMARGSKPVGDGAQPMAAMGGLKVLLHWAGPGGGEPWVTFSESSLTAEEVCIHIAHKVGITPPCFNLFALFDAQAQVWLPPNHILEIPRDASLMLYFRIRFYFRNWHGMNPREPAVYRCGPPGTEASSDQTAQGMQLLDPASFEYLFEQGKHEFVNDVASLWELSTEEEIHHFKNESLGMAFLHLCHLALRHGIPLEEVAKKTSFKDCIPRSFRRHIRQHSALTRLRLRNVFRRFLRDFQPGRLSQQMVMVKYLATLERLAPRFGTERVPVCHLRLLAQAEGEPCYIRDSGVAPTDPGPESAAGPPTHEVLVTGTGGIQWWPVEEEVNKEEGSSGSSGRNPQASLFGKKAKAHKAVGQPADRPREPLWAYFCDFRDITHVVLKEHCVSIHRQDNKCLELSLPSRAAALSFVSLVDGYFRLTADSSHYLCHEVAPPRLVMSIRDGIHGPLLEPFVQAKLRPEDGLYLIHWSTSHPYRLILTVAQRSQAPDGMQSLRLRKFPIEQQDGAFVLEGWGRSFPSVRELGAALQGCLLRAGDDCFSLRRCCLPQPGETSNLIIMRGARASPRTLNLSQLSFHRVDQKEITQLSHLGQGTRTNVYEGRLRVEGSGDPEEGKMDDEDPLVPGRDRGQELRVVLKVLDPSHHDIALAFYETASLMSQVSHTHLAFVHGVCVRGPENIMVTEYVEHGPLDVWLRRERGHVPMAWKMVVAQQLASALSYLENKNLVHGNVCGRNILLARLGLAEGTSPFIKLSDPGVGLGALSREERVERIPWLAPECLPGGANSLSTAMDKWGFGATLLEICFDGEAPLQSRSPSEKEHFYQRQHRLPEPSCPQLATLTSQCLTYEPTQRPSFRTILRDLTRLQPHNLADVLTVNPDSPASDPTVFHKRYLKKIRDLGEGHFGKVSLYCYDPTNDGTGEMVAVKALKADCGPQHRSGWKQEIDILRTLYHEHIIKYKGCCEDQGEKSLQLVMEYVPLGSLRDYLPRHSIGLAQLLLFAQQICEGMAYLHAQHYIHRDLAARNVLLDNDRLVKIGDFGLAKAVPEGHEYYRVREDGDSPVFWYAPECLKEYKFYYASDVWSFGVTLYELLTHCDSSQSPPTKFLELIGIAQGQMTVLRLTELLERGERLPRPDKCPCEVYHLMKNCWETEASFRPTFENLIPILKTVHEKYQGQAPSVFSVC

| Compound | TYK2 MSD OCI-LY10 Dmax % [1] | DC50 [1] | Dmax [1] | TYK2 MSD OCI-LY10 Dmax % (OCI-LY10 cells) | DC50 (OCI-LY10 cells) |
| --- | --- | --- | --- | --- | --- |
| CNc1cc(N2CCc3c(CN4CCC(N5CCC6(CCN(C(=O)c7cc(N8CCC(=O)NC8=O)c(C)cn7)CC6)CC5)C(F)(F)C4)cccc32)nn2c(C(=O)N[C@@H]3C[C@@H]3F)cnc12 (some centres unmarked) [I-1022] | B (B (90 to >75%)) | < 1 nM | – | – | – |
| CNc1cc(N2CCc3c(-c4ncc(CN5CC6(CCN(C(=O)c7cc(Cl)c(C)c(N8CCC(=O)NC8=O)c7)CC6(F)F)C5)cc4F)cccc32)nn2c(C(=O)N[C@@H]3C[C@@H]3F)cnc12 [I-1008, 6-(4-(5-((7-(3-chloro-5-(2,4-dioxotetrahydropyrimidin-1(2H)-yl)-4-methylbenzoyl)-5,5-difluoro-2,7-diazaspiro[3.5]nonan-2-yl)methyl)-3-fluoropyridin-2-yl)indolin-1-yl)-N-((1R,2S)-2-fluorocyclopropyl)-8-(methylamino)imidazo[1,2-b]pyridazine-3-carboxamide] | – | < 1 nM | > 90% | – | – |
| CNc1cc(N2CCc3c(-c4cc(CN5CCN(c6noc7cc(N8CCC(=O)NC8=O)ccc67)CC5)ccn4)cccc32)nn2c(C(=O)N[C@@H]3C[C@@H]3F)cnc12 [I-723] | – | – | – | D (D (<50%)) | > 100 nM |
| CNc1cc(N2CCc3c(-c4ccc(CN5CCC6(CCN(C(=O)c7ccc(C(F)F)c(N8CCC(=O)NC8=O)c7)CC6)C(F)(F)C5)cn4)cccc32)nn2c(C(=O)N[C@@H]3C[C@@H]3F)cnc12 [I-980] | C (C (75 to 50%)) | < 10 nM | – | – | – |
| CNc1cc(N2CCc3c(-c4ncc(CN5CCC6(CCN(C(=O)c7cc(C)c(Cl)c(N8CCC(=O)NC8=O)c7)CC6)C(F)(F)C5)cc4Cl)cccc32)nn2c(C(=O)N[C@@H]3C[C@@H]3F)cnc12 [I-746] | – | – | – | B (B (90 to >75%)) | < 10 nM |
| CNc1cc(N2CCc3c(CN4CCC(CN5CCC(N(C)c6ccc(Cl)c(N7CCC(=O)NC7=O)c6)CC5)C(F)(F)C4)cccc32)nn2c(C(=O)N[C@@H]3C[C@@H]3F)cnc12 (some centres unmarked) [I-751] | – | – | – | B (B (90 to >75%)) | < 10 nM |
| CNc1cc(N2CCc3c(N4CCN(CCC5CCN(c6ccc7c(c6)n(C)c(=O)n7C6CCC(=O)NC6=O)CC5)CC4)cccc32)nn2c(C(=O)NC3CC3)cnc12 (centres unmarked) [I-40] | D (D (<50%)) | > 100 nM | – | – | – |
| CNc1cc(-c2ccc(N3CCC(CN4CC5(CCN(C(=O)c6ccc(Cl)c(N7CCC(=O)NC7=O)c6)CC5(F)F)C4)CC3)cc2)nn2c(C(=O)N[C@@H]3C[C@@H]3F)cnc12 [I-882] | D (D (<50%)) | > 100 nM | – | – | – |
| CNc1cc(N2CCc3c([C@H](C)N4CC[C@H](N5CCC6(CCN(C(=O)c7cc(C)c(Cl)c(N8CCC(=O)NC8=O)c7)CC6)CC5)C(F)(F)C4)cccc32)nn2c(C(=O)N[C@@H]3CC[C@H]3OC)cnc12 [I-1127] | A (A (>90%)) | < 1 nM | – | – | – |
| CNc1cc(N2CCc3c(CN4CCN(C5CCC6(CC5)CCN(C(=O)c5ccc(Cl)c(N7CCC(=O)NC7=O)c5)CC6)CC4)cccc32)nn2c(C(=O)N[C@@H]3C[C@@H]3F)cnc12 [I-857] | A (A (>90%)) | < 1 nM | – | – | – |
| CNc1cc(N2CCc3c(CCN4CCC5(CC4)CCN(C(=O)c4ccc(Cl)c(N6CCC(=O)NC6=O)c4)CC5)cccc32)nn2c(C(=O)N[C@@H]3C[C@@H]3F)cnc12 [I-895] | D (D (<50%)) | > 100 nM | – | – | – |
| CNc1cc(N2CCc3c(-c4ccc(CN5CCC6(CC5)CCN(c5ccc(Cl)c(NC7CCC(=O)NC7=O)c5)CC6)cn4)cccc32)nn2c(C(=O)NC3CC3)cnc12 (centres unmarked) [I-66] | D (D (<50%)) | > 100 nM | – | – | – |
| CNc1cc(N2CCc3c(N4CCN(CC5CCC6(CC5)CCN(C(=O)c5ccc(Cl)c(N7CCC(=O)NC7=O)c5)CC6)CC4)cccc32)nn2c(C(=O)NC3CC3)cnc12 [I-55] | D (D (<50%)) | > 100 nM | – | – | – |
| CNc1cc(N2CCc3c(CN4CCC(N5CCC6(CCN(C(=O)c7ccc(Cl)c(N8CCC(=O)NC8=O)c7)CC6)CC5)CC4)cccc32)nn2c(C(=O)N[C@@H]3C[C@@H]3F)cnc12 [I-802] | B (B (90 to >75%)) | < 10 nM | – | – | – |
| CNc1cc(N2CCc3c(CN4CC[C@@H](N5CCC6(CCN(C(=O)c7ccc(Cl)c(N8CCC(=O)NC8=O)c7)CC6)CC5)C(F)(F)C4)cccc32)nn2c(C(=O)N[C@@H]3C[C@@H]3F)cnc12 [I-714] | – | – | – | B (B (90 to >75%)) | < 1 nM |
| CNc1cc(N2CCc3c(-c4ncc(CN5CCC6(CCN(C(=O)c7cc(C)c(Cl)c(N8CCC(=O)NC8=O)c7)CC6)C(F)(F)C5)cc4F)cccc32)nn2c(C(=O)N[C@@H]3CC[C@H]3OC)cnc12 [I-1106] | A (A (>90%)) | < 10 nM | – | – | – |
| CNc1cc(N2CCc3c(-c4ncc(CN5CC6(CCN(C(=O)c7cc(C)c(Cl)c(N8CCC(=O)NC8=O)c7)CC6(F)F)C5)cc4F)cccc32)nn2c(C(=O)N[C@@H]3C[C@@H]3F)cnc12 [I-813, 6-(4-(5-((7-(4-chloro-3-(2,4-dioxotetrahydropyrimidin-1(2H)-yl)-5-methylbenzoyl)-5,5-difluoro-2,7-diazaspiro[3.5]nonan-2-yl)methyl)-3-fluoropyridin-2-yl)indolin-1-yl)-N-((1R,2S)-2-fluorocyclopropyl)-8-(methylamino)imidazo[1,2-b]pyridazine-3-carboxamide] | – | < 1 nM | > 90% | – | – |

| Compound | TYK2 MSD OCI-LY10 Dmax % [1] | DC50 [1] | Dmax [1] | TYK2 MSD OCI-LY10 Dmax % (OCI-LY10 cells) | DC50 (OCI-LY10 cells) |
| --- | --- | --- | --- | --- | --- |
| CNc1cc(-c2ccc(N3CCN(CC4CC5(CCN(C(=O)c6ccc(Cl)c(N7CCC(=O)NC7=O)c6)CC5)C4)CC3)cc2)nn2c(C(=O)N[C@@H]3C[C@@H]3F)cnc12 [I-889] | D (D (<50%)) | > 100 nM | – | – | – |
| CNc1cc(N2CCc3c(N4CC(CN5CCC(N6CCN(C(=O)c7ccc(Cl)c(N8CCC(=O)NC8=O)c7)CC6)C(F)(F)C5)C4)cccc32)nn2c(C(=O)N[C@@H]3C[C@@H]3F)cnc12 (some centres unmarked) [I-781] | – | – | – | D (D (<50%)) | > 100 nM |
| CNc1cc(N2CCc3c(CN4CCC(N5CCC6(CCN(C(=O)c7cc(N8CCC(=O)NC8=O)c(C)cc7F)CC6)CC5)C(F)(F)C4)cccc32)nn2c(C(=O)N[C@@H]3C[C@@H]3F)cnc12 (some centres unmarked) [I-853] | A (A (>90%)) | < 1 nM | – | – | – |
| CNc1cc(N2CC3(CCN(C4CCN(c5cccc6c5n(C)c(=O)n6C5CCC(=O)NC5=O)CC4)CC3)c3ccccc32)nn2c(C(=O)NC3CC3)cnc12 (centres unmarked) [I-23] | D (D (<50%)) | > 100 nM | – | – | – |
| CNc1cc(N2CCc3c(C#CCN4CCC5(CN(C(=O)c6ccc(Cl)c(N7CCC(=O)NC7=O)c6)C5)C(F)(F)C4)cccc32)nn2c(C(=O)N[C@@H]3C[C@@H]3F)cnc12 [I-370] | D (D (<50%)) | > 100 nM | – | – | – |
| CNc1cc(N2CCc3c(-c4ccc(CN5CC6(C5)CN(C(=O)c5ccc(Cl)c(N7CCC(=O)NC7=O)c5)C6)cn4)cccc32)nn2c(C(=O)NC3CC3F)cnc12 (centres unmarked) [I-295] | D (D (<50%)) | < 10 nM | – | – | – |
| CNc1cc(N2CCc3c(-c4ccc(CN5CCC6(CC5)CC(COc5ccc(C7CCC(=O)NC7=O)c(Cl)c5)C6)cn4)cccc32)nn2c(C(=O)N[C@@H]3C[C@@H]3F)cnc12 (some centres unmarked) [I-460] | – | – | – | D (D (<50%)) | > 100 nM |
| CNc1cc(N2CCc3c(CN4CCC(N5CCC(N6CCN(c7ccc8c(c7)n(C)c(=O)n8C7CCC(=O)NC7=O)CC6)CC5)C(F)(F)C4)cccc32)nn2c(C(=O)N[C@@H]3C[C@@H]3F)cnc12 (some centres unmarked) [I-347] | B (B (90 to >75%)) | < 1 nM | – | – | – |
| CNc1cc(N2CCc3c(-c4ccc(N5CC6(CCN(Cc7ccc(C8CCC(=O)NC8=O)c(Cl)c7)CC6)C5)cn4)cccc32)nn2c(C(=O)NC3CC3F)cnc12 (mixture of isomers) [I-445] | – | – | – | B (B (90 to >75%)) | < 10 nM |
| CNc1cc(N2CCc3c(-c4ccc(CN5CC6(CCN(C(=O)c7ccc(C)c(N8CCC(=O)NC8=O)c7)CC6(F)F)C5)cn4)cc(F)cc32)nn2c(C(=O)NC3CC3F)cnc12 (centres unmarked) [I-357] | A (A (>90%)) | < 1 nM | – | – | – |
| CNc1cc(N2CCc3c2ccc(F)c3CN2CCC(N3CCC4(CCN(C(=O)c5ccc(Cl)c(N6CCC(=O)NC6=O)c5)CC4)CC3)C(F)(F)C2)nn2c(C(=O)N[C@@H]3C[C@@H]3F)cnc12 (some centres unmarked) [I-750] | – | – | – | A (A (>90%)) | < 1 nM |
| CNc1cc(N2CCc3c(-c4ccc(CN5CCC6(CCN(C(=O)c7cc(F)c(Cl)c(N8CCC(=O)NC8=O)c7)CC6)C(F)(F)C5)cn4)cc(F)cc32)nn2c(C(=O)N[C@@H]3CC[C@H]3OC)cnc12 [I-744] | – | – | – | B (B (90 to >75%)) | < 10 nM |
| CNc1cc(N2CCc3c(-c4ncc(CN5CCC6(CCN(C(=O)c7cc(C)c(Cl)c(N8CCC(=O)NC8=O)c7)CC6)C(F)(F)C5)cn4)cccc32)nn2c(C(=O)N[C@@H]3C[C@@H]3F)cnc12 [I-799] | B (B (90 to >75%)) | < 10 nM | – | – | – |
| CNc1cc(N2CCc3c(-c4ccc(CN5CCC6(C5)CN(C(=O)c5ccc(Cl)c(N7CCC(=O)NC7=O)c5)C6)cn4)cccc32)nn2c(C(=O)NC3CC3F)cnc12 (centres unmarked) [I-297] | C (C (75 to 50%)) | < 10 nM | – | – | – |
| CNc1cc(N2CCc3c(-c4ccc(CN5CC6(CCN(C(=O)c7ccc(Cl)c(N8CCC(=O)NC8=O)c7)CC6)C5)cc4)cccc32)nn2c(C(=O)N[C@@H]3C[C@@H]3F)cnc12 [I-73] | C (C (75 to 50%)) | < 10 nM | – | – | – |
| CNc1cc(N2CCc3c(-c4ccc(CN5CCC6(CCN(Cc7ccc(Cl)c(N8CCC(=O)NC8=O)c7)CC6)C(F)(F)C5)cn4)cccc32)nn2c(C(=O)N[C@@H]3C[C@@H]3F)cnc12 [I-289] | D (D (<50%)) | > 100 nM | – | – | – |
| CNc1cc(N2CCc3c(-c4ccc(N5CC6(CCN(C(=O)c7ccc(N8CCC(=O)NC8=O)c(Cl)c7)CC6)C5)cn4)cccc32)nn2c(C(=O)N[C@@H]3C[C@@H]3F)cnc12 [I-892] | B (B (90 to >75%)) | < 10 nM | – | – | – |
